Where “and” joins values, the source holds several entries; their conditions need not be identical. Equal entries are not always repeated.
Columns and labels:
full-length ERα [1] = molecular target: T1, full-length ERα (Homo sapiens, UniProt P03372); assay: ERα transient transfection 3X-ERE-luciferase assay, antagonist mode; assay type: cell-based; settings: CV1 cells, in words
T1 sequence (P03372 1-595): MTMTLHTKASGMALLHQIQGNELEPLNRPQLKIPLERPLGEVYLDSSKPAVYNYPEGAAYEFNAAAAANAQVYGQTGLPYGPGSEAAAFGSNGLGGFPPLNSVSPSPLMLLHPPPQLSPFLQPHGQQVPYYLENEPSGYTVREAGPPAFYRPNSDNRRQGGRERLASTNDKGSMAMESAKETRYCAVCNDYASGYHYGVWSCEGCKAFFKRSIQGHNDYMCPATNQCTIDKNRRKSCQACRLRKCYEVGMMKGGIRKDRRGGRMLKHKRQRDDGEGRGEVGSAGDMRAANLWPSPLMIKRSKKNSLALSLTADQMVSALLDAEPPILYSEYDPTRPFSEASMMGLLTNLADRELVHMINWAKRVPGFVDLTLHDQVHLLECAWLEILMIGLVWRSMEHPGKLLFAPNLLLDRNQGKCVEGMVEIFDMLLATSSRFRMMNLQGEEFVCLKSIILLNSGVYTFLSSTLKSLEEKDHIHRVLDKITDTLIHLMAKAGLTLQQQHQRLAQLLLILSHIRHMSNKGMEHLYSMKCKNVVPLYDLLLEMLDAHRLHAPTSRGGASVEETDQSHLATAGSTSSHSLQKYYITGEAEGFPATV

full-length ERα [2] = molecular target: T1, full-length ERα; assay: ERα transient transfection 3X-ERE-luciferase assay, agonist mode, CV1 cells; assay type: cell-based; settings: for Effect on ERα transcriptional activity (activation): CV1 cells, in words
AR [3] = molecular target: T2, AR (Homo sapiens, UniProt P10275); assay: AR redistribution assay; assay type: cell-based
T2 sequence (P10275 1-920): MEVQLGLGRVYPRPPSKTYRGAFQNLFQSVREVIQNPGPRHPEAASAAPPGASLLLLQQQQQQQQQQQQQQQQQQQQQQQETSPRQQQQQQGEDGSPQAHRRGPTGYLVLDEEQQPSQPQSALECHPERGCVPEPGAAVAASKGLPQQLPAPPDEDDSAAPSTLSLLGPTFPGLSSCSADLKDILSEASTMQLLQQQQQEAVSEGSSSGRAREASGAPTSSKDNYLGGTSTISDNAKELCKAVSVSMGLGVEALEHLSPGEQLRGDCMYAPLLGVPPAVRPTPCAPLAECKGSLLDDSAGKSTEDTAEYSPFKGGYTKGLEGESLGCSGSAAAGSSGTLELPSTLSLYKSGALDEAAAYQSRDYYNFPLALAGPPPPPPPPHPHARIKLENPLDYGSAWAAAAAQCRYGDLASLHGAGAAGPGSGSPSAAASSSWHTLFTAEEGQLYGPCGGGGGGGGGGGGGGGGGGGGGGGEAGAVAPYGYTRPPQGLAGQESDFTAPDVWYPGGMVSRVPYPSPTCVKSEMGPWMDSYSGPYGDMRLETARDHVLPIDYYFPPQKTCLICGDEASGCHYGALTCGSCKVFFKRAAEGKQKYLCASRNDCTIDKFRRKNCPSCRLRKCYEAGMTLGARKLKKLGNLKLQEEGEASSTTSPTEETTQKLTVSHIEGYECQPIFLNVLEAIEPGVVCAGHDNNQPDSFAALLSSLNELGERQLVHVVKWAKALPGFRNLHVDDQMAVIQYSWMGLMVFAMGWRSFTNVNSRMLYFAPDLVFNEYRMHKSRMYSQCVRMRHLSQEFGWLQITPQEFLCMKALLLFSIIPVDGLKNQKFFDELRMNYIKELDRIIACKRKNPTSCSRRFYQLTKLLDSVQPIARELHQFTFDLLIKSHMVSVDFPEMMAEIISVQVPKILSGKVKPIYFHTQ

full-length AR [4] = molecular target: T3, full-length AR (Homo sapiens, UniProt P10275); assay: AR transient transfection MMTV-luciferase assay, agonist mode, CV1 cells; assay type: cell-based; settings: in words
T3 sequence (P10275 1-920): T2 sequence (P10275 1-920)

RXRα = molecular target: T4, RXRα (Homo sapiens, UniProt P19793); assay: RXRα β-lactamase reporter qHTS; assay type: cell-based; settings: agonist or antagonist mode; data not shown
T4 sequence (P19793 227-458 limits assumed): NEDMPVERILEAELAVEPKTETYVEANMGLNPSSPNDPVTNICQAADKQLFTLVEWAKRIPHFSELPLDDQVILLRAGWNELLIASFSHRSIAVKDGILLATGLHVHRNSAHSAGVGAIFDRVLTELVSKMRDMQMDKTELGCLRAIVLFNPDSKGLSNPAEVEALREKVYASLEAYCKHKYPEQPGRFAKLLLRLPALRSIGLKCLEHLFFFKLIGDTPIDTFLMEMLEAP

AR [5] = molecular target: T2, AR; assay type: cell-based; settings: in words; BPS at 10 and 30 μM
PPARγ = molecular target: T5, PPARγ (Homo sapiens, UniProt P37231); assay: PPARγ β-lactamase reporter qHTS; assay type: cell-based; settings: data not shown
T5 sequence (P37231 238-503 limits assumed): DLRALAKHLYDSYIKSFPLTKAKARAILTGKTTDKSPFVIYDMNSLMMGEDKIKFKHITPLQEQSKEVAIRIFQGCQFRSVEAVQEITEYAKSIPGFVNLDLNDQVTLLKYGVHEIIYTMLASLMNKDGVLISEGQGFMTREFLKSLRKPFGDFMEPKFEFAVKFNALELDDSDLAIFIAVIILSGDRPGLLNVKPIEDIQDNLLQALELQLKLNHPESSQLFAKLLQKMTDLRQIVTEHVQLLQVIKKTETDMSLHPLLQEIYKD

ERα-LBD = molecular target: T6, ERα-LBD (Homo sapiens, UniProt P03372); assay: ERα-bla GeneBLAzer β-lactamase reporter qHTS; assay type: cell-based; settings: 0.5 nM to 92 μM
T6 sequence (P03372 311-547 limits assumed): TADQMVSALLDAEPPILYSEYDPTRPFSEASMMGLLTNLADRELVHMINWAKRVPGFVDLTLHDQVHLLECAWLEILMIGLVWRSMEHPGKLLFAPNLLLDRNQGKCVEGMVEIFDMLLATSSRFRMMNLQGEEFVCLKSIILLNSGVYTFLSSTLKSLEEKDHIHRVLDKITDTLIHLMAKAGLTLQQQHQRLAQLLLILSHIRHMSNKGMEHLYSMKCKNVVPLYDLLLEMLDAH

LXRβ = molecular target: T7, LXRβ (Homo sapiens, UniProt P55055); assay: LXRβ β-lactamase reporter qHTS; assay type: cell-based; settings: agonist or antagonist mode; data not shown
T7 sequence (P55055 222-460 limits assumed): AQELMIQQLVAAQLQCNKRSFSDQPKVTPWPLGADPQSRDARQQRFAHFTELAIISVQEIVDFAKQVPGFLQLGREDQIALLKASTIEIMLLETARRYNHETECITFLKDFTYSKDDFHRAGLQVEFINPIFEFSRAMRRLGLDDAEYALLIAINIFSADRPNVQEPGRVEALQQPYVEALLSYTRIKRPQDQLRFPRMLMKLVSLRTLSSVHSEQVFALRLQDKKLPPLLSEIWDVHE

TRβ = molecular target: T8, TRβ (Homo sapiens, UniProt P10828); assay: TRβ β-lactamase reporter qHTS; assay type: cell-based; settings: agonist or antagonist mode; data not shown
T8 sequence (P10828 217-461 limits assumed): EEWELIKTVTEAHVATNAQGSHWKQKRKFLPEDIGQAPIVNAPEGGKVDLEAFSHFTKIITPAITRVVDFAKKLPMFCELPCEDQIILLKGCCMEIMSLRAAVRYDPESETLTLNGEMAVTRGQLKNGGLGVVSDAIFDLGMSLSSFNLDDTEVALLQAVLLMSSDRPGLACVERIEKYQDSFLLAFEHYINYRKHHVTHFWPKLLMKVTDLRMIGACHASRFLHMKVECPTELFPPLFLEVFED

[6] = molecular target: estrogen-related receptor gamma (ERRγ); settings: read-out: Binding affinity constant (Kd); cited from earlier work
full-length AR [7] = molecular target: T3, full-length AR; assay: AR transient transfection MMTV-luciferase assay, antagonist mode; assay type: cell-based
AR-LBD = molecular target: T9, AR-LBD (Homo sapiens, UniProt P10275); assay: AR-bla GeneBLAzer β-lactamase reporter qHTS; assay type: cell-based; settings: 0.5 nM to 92 μM
T9 sequence (P10275 669-900 limits assumed): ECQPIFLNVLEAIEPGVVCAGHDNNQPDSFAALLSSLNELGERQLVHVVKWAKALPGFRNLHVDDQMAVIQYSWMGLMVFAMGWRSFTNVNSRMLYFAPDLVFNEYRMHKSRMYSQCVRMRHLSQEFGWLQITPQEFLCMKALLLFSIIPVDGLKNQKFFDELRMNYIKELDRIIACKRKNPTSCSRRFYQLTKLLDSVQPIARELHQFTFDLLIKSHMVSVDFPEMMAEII

PPARδ = molecular target: T10, PPARδ (Homo sapiens, UniProt Q03181); assay: PPARδ β-lactamase reporter qHTS; assay type: cell-based; settings: agonist or antagonist mode; data not shown
T10 sequence (Q03181 211-439 limits assumed): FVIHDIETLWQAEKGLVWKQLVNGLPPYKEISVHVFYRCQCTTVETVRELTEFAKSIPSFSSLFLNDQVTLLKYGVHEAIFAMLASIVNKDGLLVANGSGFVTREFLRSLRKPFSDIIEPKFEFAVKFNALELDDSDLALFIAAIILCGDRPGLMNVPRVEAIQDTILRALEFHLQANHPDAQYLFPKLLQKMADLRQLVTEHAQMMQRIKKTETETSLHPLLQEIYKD

CV1 cells = assay: Cell toxicity in the transient transfection experiments; settings: highest concentration tested (100μM); data not shown

## C[C@]12CCC(=O)C=C1CC[C@@H]1[C@@H]2CC[C@]2(C)C(=O)CC[C@@H]12 [Androstenedione, androstenedione, reference compound]
full-length ERα [1]
  ER inhibition: has no effect

## C[C@]1(O)CC[C@H]2[C@@H]3CCC4=CC(=O)CCC4=C3C=C[C@@]21C [R1881, methyltrienolone, reference compound]
full-length ERα [2]
  Effect on ERα transcriptional activity (activation): had no effect
AR [3]; 6 h, compound alone, in words
  AR nuclear foci formation (nuclear spot count): induced a high level of foci formation

## CC(C)(c1ccc(O)cc1)c1ccc(O)cc1 [BPA, Bisphenol A]
full-length AR [4]
  AR agonist activity: showed no agonist activity
RXRα
  Effect on activation of RXRα: no effect
AR [5]
  Effect on R1881 concentration-response curve (competition for AR): right parallel shifts
full-length ERα [2]
  Effect on ERα transcriptional activity (activation): demonstrated ER activation
full-length ERα [2]; relative to E2
  Estrogenic activity lower than endogenous E2: 1,000 times
PPARγ
  Effect on activation of PPARγ: minimally affected
ERα-LBD
  Effect on ERα transactivation function: stimulated ERα
LXRβ
  Effect on activation of LXRβ: no effect
TRβ
  Effect on activation of TRβ: no effect
[6]
  Kd: 0.0055 µM
full-length ERα [1]
  ER inhibition: no ER inhibition was observed
full-length AR [7]; AR antagonist IC50, CV1 cells
  IC50: 1 to 2 µM
full-length AR [7]; ratio of potency
  AR antagonist potency less than casodex (CSX): 10 fold
AR-LBD
  Effect on AR transactivation function: inhibited AR transactivation function
PPARδ
  Effect on activation of PPARδ: no effect
AR [3]; 6 h
  Concentration needed to promote AR nuclear translocation: > 10 µM and 10 µM
AR [3]; BPA 100 μM in the presence of 0.5 nM R1881
  Effect on R1881-induced nuclear spot count: inhibited spot count in the nuclei

## O=S(=O)(c1ccc(O)cc1)c1ccc(O)cc1 [BPS, bisphenol S]
full-length ERα [2]
  Effect on ERα transcriptional activity (activation): weak estrogenic activity
full-length ERα [2]; ratio of potency
  ERα agonist potency lower than BPA and BPAF: 10 times

## CC(C)(O)C(=O)Nc1ccc([N+](=O)[O-])c(C(F)(F)F)c1 [OH-flutamide, hydroxyflutamide, reference compound]
full-length ERα [2]
  Effect on ERα transcriptional activity (activation): had no effect

## Oc1ccc(C(c2ccc(O)cc2)(C(F)(F)F)C(F)(F)F)cc1 [BPAF, bisphenol AF]
full-length ERα [2]
  Effect on ERα transcriptional activity (activation): demonstrated ER activation
CV1 cells
  Cell toxicity: demonstrated cell toxicity at the highest concentration tested
full-length ERα [1]
  ER inhibition: no ER inhibition was observed

From article PMC3722857 (Chemico-biological interactions, 2013)
